≈ marks a conversion by molar mass, not a printed value. Read-outs that look alike come from different tables or passages of the source.
What was measured:
[1] = tested on: B16-F10 (murine melanoma) cells; experiment: In vitro cytotoxicity (Table 14); format: cell-based; settings: Mus musculus
Procedure: (§2) B16-F10 (murine melanoma), HCT-116 (human colon carcinoma), A549 (human lung carcinoma) and A549/VP29 (an etoposide-resistant subline of A549) were grown in Eagle's MEM (Nissui) supplemented with FCS (fetal calf serum, 10%) and non-essential amino acids (B16-F10), or in McCoy's 5A medium (Gibco) with FCS (10%), essential and non-essential amino acids, vitamins and antibiotics (HCT-116 and both of A549) at 37° C. under a humidified atmosphere in a 5% CO2 incubator. Exponentially growing B16-F10, HCT-116 and A549 cells were harvested, counted and suspended in the culture medium at 1.5×10^4, 3×10^4 and 3×10^4 cells/ml, respectively. After planting 180 μl of cell suspension into wells of a 96-well microtiter plate on day 0, the test materials (20 μl) were added on day 1 and the plates were incubated for 72 hours. The cytotoxic activity was colorimetrically determined at 540 nm after staining viable cells with neutral red solution.

[2] = tested on: HCT-116 (human colon carcinoma) cells; experiment: In vitro cytotoxicity (Table 14); format: cell-based
Procedure: as §2

Piricularia oryzae D91 = experiment: microbe, parasite or virus in culture; format: cell-based; settings: 40 h, pH 7
A. fumigatus IAM2034 = experiment: microbe, parasite or virus in culture; settings: Aspergillus fumigatus, IAM2034, 40 h, pH 7
Procedure: (§3) In vitro antifungal activity was determined against various fungi by the serial agar dilution method. Sabouraud dextrose agar (pH 7.0) was used for the experiment. The inoculum size was adjusted to 10^6 CFU/ml. After incubation at 28° C. for 40 hours, the minimum inhibitory concentration (MIC) was examined.

[3] = tested on: Sporothrix schenckii IF08158; experiment: microbe, parasite or virus in culture; settings: IF08158, 40 h, pH 7
Procedure: as §3

Candida albicans IAM4888 = experiment: In vitro antifungal activity, serial agar dilution; settings: IAM4888, 40 h, pH 7
Procedure: as §3

C. albicans A9540 = experiment: In vitro antifungal activity, serial agar dilution; settings: Candida albicans, A9540, 40 h, pH 7
Procedure: as §3

[4] = tested on: Cryptococcus neoformans D49; experiment: In vitro antifungal activity, serial agar dilution; settings: D49, 40 h, pH 7
Procedure: as §3

C. neoformans IAM4514 = experiment: In vitro antifungal activity, serial agar dilution; settings: Cryptococcus neoformans, IAM4514, 40 h, pH 7
Procedure: as §3

[5] = tested on: Aspergillus fumigatus IAM2530; experiment: In vitro antifungal activity, serial agar dilution; settings: IAM2530, 40 h, pH 7
Procedure: as §3

A. flavus FA21436 = experiment: In vitro antifungal activity, serial agar dilution; settings: Aspergillus flavus, FA21436, 40 h, pH 7
Procedure: as §3

[6] = tested on: Fusarium moniliforme A2284; experiment: In vitro antifungal activity, serial agar dilution; settings: Fusarium verticillioides, A2284, 40 h, pH 7
Procedure: as §3

[7] = tested on: Trichophyton mentagrophytes D155; experiment: In vitro antifungal activity, serial agar dilution; settings: D155, 40 h, pH 7
Procedure: as §3

T. mentagrophytes #4329 = experiment: In vitro antifungal activity, serial agar dilution; settings: Trichophyton mentagrophytes, 40 h, pH 7
Procedure: as §3

[8] = tested on: Blastomyces dermatidis D40; experiment: In vitro antifungal activity, serial agar dilution; settings: D40, 40 h, pH 7
Procedure: as §3

[9] = tested on: Petriellidium boydii IF08078; experiment: In vitro antifungal activity, serial agar dilution; settings: Scedosporium boydii, IF08078, 40 h, pH 7
Procedure: as §3

Mucor spinosus IF05317 = experiment: In vitro antifungal activity, serial agar dilution; settings: IF05317, 40 h, pH 7
Procedure: as §3

P388 leukemia = experiment: In vivo antitumor activity against P388 leukemia (Table 8); settings: P388 leukemia in mice
[10] = tested on: A549 (human lung carcinoma) cells; experiment: In vitro cytotoxicity (Table 14); format: cell-based; settings: A549, 72 hours, neutral red, read-out: IC50
Procedure: as §2

[11] = tested on: DNA biosynthesis in L1210 leukemia cells; experiment: Inhibition of macromolecule biosynthesis, DNA (Table 15); format: cell-based, murine
Procedure: (§1) Inhibitory effects of the above compounds on macromolecule (DNA, RNA and protein) biosynthesis were determined in cultured L1210 murine leukemia cells. The cells (5×10^5 cells/ml) were incubated with the test materials at 37° C. for 15 minutes and then further incubated for 60 minutes after the addition of labeled precursor, ^3 H-thymidine, ^14 C-uridine or ^3 H-leucine into the cultured mixture. After washing with chilled 5% trichloroacetic acid solution, the radioactivity incorporated into the acid-insoluble fraction of the cells was determined with a liquid scintillation counter.

[12] = tested on: RNA biosynthesis in L1210 leukemia cells; experiment: Inhibition of macromolecule biosynthesis, RNA (Table 15); format: cell-based, murine; settings: Mus musculus, labeled precursor, 15 min + 60 min, 37° C., read-out: IC50, RNA synthesis
Procedure: as §1

[13] = tested on: protein biosynthesis in L1210 leukemia cells; experiment: Inhibition of macromolecule biosynthesis, protein (Table 15); format: cell-based, murine; settings: Mus musculus, labeled precursor, 15 min + 60 min, 37° C., read-out: IC50, protein synthesis
Procedure: as §1

Solubility = format: physicochemical
[14] = tested on: A549/VP29 (etoposide-resistant subline of A549) cells; experiment: In vitro cytotoxicity (Table 14)
Procedure: (§4) After planting 180 μl of cell suspension into wells of a 96-well microtiter plate on day 0, the test materials (20 μl) were added on day 1 and the plates were incubated for 72 hours. The cytotoxic activity was colorimetrically determined at 540 nm after staining viable cells with neutral red solution.

[15] = tested on: murine and human tumor cell lines; experiment: In vitro cytotoxicity, overall statement; settings: murine and human tumor cell lines
Procedure: as §4

fungi = experiment: In vitro antifungal activity, overall statement; settings: various fungi
Procedure: as §3

## COc1cccc2c1C(=O)c1c(O)c3c(c(O)c1C2=O)C[C@@](O)(C(=O)CO)C[C@@H]3O[C@H]1C[C@H](N)[C@H](O)[C@H](C)O1 [Adriamycin, reference compound]
[1]; B16-F10, 72 h
  IC50: 0.03 µg/mL (≈ 0.0552 µM)
[2]; HCT-116, 72 h
  IC50: 0.3 µg/mL (≈ 0.552 µM)

## C[C@@H]1[C@H](O)[C@@H](C)/C=C/C=C/C=C/C=C/C=C/C=C/C=C/[C@H](O[C@@H]2O[C@H](C)[C@@H](O)[C@H](N)[C@@H]2O)C[C@@H]2O[C@](O)(C[C@@H](O)C[C@@H](O)[C@H](O)CC[C@@H](O)C[C@@H](O)CC(=O)O[C@H]1C)C[C@H](O)[C@H]2C(=O)O [Amphotericin B]
Piricularia oryzae D91
  MIC: 12.5 µg/mL (≈ 13.5 µM)
A. fumigatus IAM2034
  MIC: 3.1 µg/mL (≈ 3.35 µM)
[3]
  MIC: > 100 µg/mL
Candida albicans IAM4888
  MIC: 1.6 µg/mL (≈ 1.73 µM)
C. albicans A9540
  MIC: 1.6 µg/mL (≈ 1.73 µM)
[4]
  MIC: 0.8 µg/mL (≈ 0.866 µM)
C. neoformans IAM4514
  MIC: 0.8 µg/mL (≈ 0.866 µM)
[5]
  MIC: 3.1 µg/mL (≈ 3.35 µM)
A. flavus FA21436
  MIC: 1.6 µg/mL (≈ 1.73 µM)
[6]
  MIC: 3.1 µg/mL (≈ 3.35 µM)
[7]
  MIC: 6.3 µg/mL (≈ 6.82 µM)
T. mentagrophytes #4329
  MIC: 6.3 µg/mL (≈ 6.82 µM)
[8]
  MIC: 12.5 µg/mL (≈ 13.5 µM)
[9]
  MIC: > 100 µg/mL
Mucor spinosus IF05317
  MIC: 6.3 µg/mL (≈ 6.82 µM)

## CCCCC/C=C/C=C\C=C/C(O)C(C)C(O)C/C=C/C1OC(=O)C=CC1O (stereo not drawn) [BU-3285T desulfate]
P388 leukemia
  in vivo antitumor activity: not active
[1]; B16-F10, 72 hours, neutral red, read-out: IC50
  IC50: 14 µg/mL (≈ 35.8 µM)
[2]; HCT-116, 72 hours, neutral red, read-out: IC50
  IC50: 5.5 µg/mL (≈ 14.1 µM)
[10]
  IC50: 13 µg/mL (≈ 33.3 µM)
[11]; Mus musculus, L1210, labeled precursor, 15 min + 60 min, 37° C., read-out: IC50, DNA synthesis
  IC50: > 100 µg/mL
[11]; at 100 μg/ml, the highest concentration tested
  inhibitory effect on DNA synthesis: no significant inhibitory effect
[12]
  IC50: 6.1 µg/mL
[13]
  IC50: 8.1 µg/mL
Solubility; acetone
  solubility in acetone: soluble
Solubility; carbon tetrachloride
  solubility in carbon tetrachloride: insoluble
Solubility; dimethyl sulfoxide
  solubility in dimethyl sulfoxide: soluble
Solubility; ethanol
  solubility in ethanol: soluble
Solubility; methanol
  solubility in methanol: soluble
Solubility; n-hexane
  solubility in n-hexane: insoluble
Solubility; water
  solubility in water: slightly soluble
[14]; A549/VP29, 72 hours, neutral red
  IC50: 15 µg/mL (≈ 38.4 µM)
[14]; vs A549 parent
  cytotoxicity against resistant A549/VP29 compared with parent cell line: almost the same cytotoxicity
[15]
  cytotoxicity in vitro: quite active
fungi
  antifungal activity in vitro: no activity against fungi in vitro

Reference: patent publication US5036008A, “Antitumor antibiotic BU-3285T” (Bristol-Myers Company, priority 1990, dated 1991)
